# From US8642516B2, “Chemically-defined arrays for screening cell-substrate interactions” (Wisconsin Alumni Research Foundation, priority 2012, dated 2014)
# Experiments:
# Assay type in all cases: cell-based, human
# [1] = system: hMSC; assay: Alkaline phosphatase activity staining of hMSCs on SAM arrays; settings: high GRGDSP density SAM spots, 7 days
# Text: In this SAM array approach, each spot was designed to contain the same total molar density (mol/cm^2) of peptide from spot to spot. Therefore, control over individual peptide density was achieved by mixing scrambled BR-BP and HPG-BP and mutant GRGESP (SEQ ID NO:19) peptides with functional BR-BP, HPG-BP or GRGDSP (SEQ ID NO:18) peptides, respectively. Therefore, in a typical SAM array, SAMs were locally formed within spots using an alkanethiolate mixture of 95% HS—C11-EG3-OH and 5% HS—C11-EG6-COOH to create substrates with a total of 5% carboxylate groups for peptide conjugation. Here, “X %” refers to the mole percent of alkanethiolate present during SAM formation and subsequently the approximate amount of an alkanethiolate present on the surface after SAM formation. To regulate the density of active peptide present in each spot, mutant and scramble versions of peptides were included during peptide conjugation. […] As mentioned previously, peptide concentrations were easily measured using UV/Vis since all peptides either contained residues that absorbed strongly at 280 nm, or were engineered to contain tryptophan residues in the poly-glycine tail. […]
# [2] = system: hMSC; assay: hMSC migration (single cell tracking) on SAM array spots presenting GRGDSP; settings: hMSCs, each ligand density condition (0.06%-5%)
# Method: For cell assays on SAM arrays, HUVECs or hMSCs were removed from plastic culture plates using a 0.05% trypsin solution, resuspended in media, and seeded onto SAM arrays in sterile polystyrene Petri dishes. After allowing cells to attach for ˜1 hour in a humidified incubator at 37° C. and 5% CO2, arrays were dipped in warm media to remove loosely attached cells and then transferred to a rectangular multidish (Thermo Scientific/Nunc, Rochester, N.Y.) with warm media and imaged ˜4 hours later serving as “0 hr.” For the initial time point and subsequent time-lapse imaging, arrays were placed on an incubated stage and each array spot was imaged every 15 minutes for 72 hours. […]
# Relative cell attachment at 0 hrs was quantified by counting the number of attached cells per spot and normalizing cell numbers to maximal attachment conditions. Normalized cell number was calculated by dividing the number of cells per spot at 72 hours (C72) to the cell number observed on the same spot at 0 hrs (C0). Relative proliferation was determined by dividing normalized cell numbers at 72 hours by the maximum average normalized cell number observed across GRGDSP density conditions. Similarly, relative spreading was determined by dividing projected cell areas to the maximum average projected cell area observed across GRGDSP density conditions. […]
# [3] = system: HUVEC; assay: HUVEC proliferation (Click-it EdU) in response to soluble morphogens on SAM arrays; settings: increased immobilized GRGDSP density
# Method: Specifically, SAM array spots presenting mixed ligands were prepared as described above. SAM arrays presenting varied ligand densities of covalently immobilized VEGF receptor-binding peptide ([sequence], here referred to as “VR-BP”; SEQ ID NO:17) and varied ligand densities of the fibronectin-derived cell adhesion peptide (GRGDSP, SEQ ID NO:18) were used to probe for changes in HUVEC attachment, proliferation and tubulogenesis. Control over individual ligand density was achieved by mixing scrambled VR-BP and mutant GRGESP (SEQ ID NO:19) with functional VR-BP or GRGDSP (SEQ ID NO:18) peptides, respectively. Therefore, in a typical SAM array, SAMs were locally formed within spots using an alkanethiolate mixture of 94% HS—C11-EG3-OH and 6% HS—C11-EG6-COOH to create substrates with a total of 6% carboxylate groups for peptide conjugation. Next, to create a spot presenting 5% GRGDSP (SEQ ID NO:18) and 1% VR-BP, a 300 μM peptide solution with 250 μM GRGDSP (SEQ ID NO:18) and 50 μM VR-BP was used during peptide conjugation. Likewise, to create a spot presenting 2.5% GRGDSP (SEQ ID NO:18) and 0.1% VR-BP, a 300 μM peptide solution with 125 μM GRGDSP (SEQ ID NO:18), 125 μM GRGESP (SEQ ID NO:19), 5 μM VR-BP and 45 μM scrambled peptide was used during peptide conjugation. In this manner, the amount of active ligand could be varied between spots while holding the total ligand content constant.
# Passage 2 HUVECs were expanded at low cell density (less than 70% confluence) on tissue culture polystyrene to no more than 14 population doublings. During HUVEC expansion, cells were cultured in medium 199 (m199, Mediatech, Manassas, Va.) containing 1% penicillin/streptomycin (Hyclone, Logan, Utah) and supplemented with Clonetics EGM-2 BullitKit (Lonza Walkersville, Inc., Walkersville, Md.) containing Hydrocortisone, hFGF-B, VEGF, R3-IGF-1, Ascorbic Acid, Heparin, FBS, hEGF, GA-1000 growth supplements. […]
substance,measurement,setting,value
GRGDSP,staining for alkaline phosphatase activity,[1],increased staining for alkaline phosphatase activity
same,fraction of migrating cells,[2],greater than 37%
same,HUVEC proliferation dependence on ligand density,[3],increased proliferation
